The source of these data is patent US11903387B2 (priority 2016, dated 2024).

Where “and” joins values, the source holds several entries; their conditions need not be identical. Equal entries are not always repeated. Where two headings read alike, the source gives them in different places.

For assay [1], the system named is Pseudoperonospora cubensis. Nature of the assay: Test 2: control effect against cucumber downy mildew. It is filed as in vivo.
The test system of the next assay is Phytophthora infestans. Nature of the assay: whole plant or invertebrate. It is filed as in vivo.
The mark [2] stands for this setting: Pseudoperonospora cubensis, Compound alone 0.3 ppm, read-out: Test 2 Measured.
The mark [3] stands for this setting: Pseudoperonospora cubensis, applied alone, 0.06 ppm, read-out: Test 2 preventive value, Measured.
Setting [4] is: Pseudoperonospora cubensis, applied alone, 0.3 ppm, read-out: Test 2 preventive value, Measured.
[5] abbreviates: Phytophthora infestans, in Solanum lycopersicum, read-out: Test 1 Measured preventive value, Compound alone, 0.3 ppm.
Setting [6] is: Phytophthora infestans, in Solanum lycopersicum, read-out: Test 1 Measured, Compound alone 0.3 ppm.
Where [7] appears, read: Phytophthora infestans, in Solanum lycopersicum, read-out: Test 1 preventive value, Measured, applied alone, 0.06 ppm.
[8] abbreviates: Phytophthora infestans, in Solanum lycopersicum, read-out: Test 1 preventive value, Measured, applied alone, 0.3 ppm.
The mark [9] stands for this setting: Phytophthora infestans, in Solanum lycopersicum, read-out: Test 1 Measured preventive value, component (b) alone, 2 ppm.
The mark [10] stands for this setting: Phytophthora infestans, in Solanum lycopersicum, read-out: Test 1 Measured preventive value, component (b) alone, 10 ppm.
[11] abbreviates: Phytophthora infestans, in Solanum lycopersicum, read-out: Test 1 Measured preventive value, component (b) alone, 50 ppm.
[12] abbreviates: Pseudoperonospora cubensis, component (b) alone, 2 ppm, read-out: Test 2 Measured.
[13] abbreviates: Pseudoperonospora cubensis, component (b) alone, 10 ppm, read-out: Test 2 Measured.
[14] abbreviates: Pseudoperonospora cubensis, component (b) alone, 50 ppm, read-out: Test 2 Measured.
Setting [15] is: Phytophthora infestans, in Solanum lycopersicum, read-out: Test 1 Measured, component (b) alone, 2 ppm.
The mark [16] stands for this setting: Phytophthora infestans, in Solanum lycopersicum, read-out: Test 1 Measured, component (b) alone, 10 ppm.
[17] abbreviates: component (b) alone 0.4 ppm, average of three repeats.
The mark [18] stands for this setting: component (b) alone 2 ppm, average of three repeats.
Where [19] appears, read: component (b) alone 10 ppm, average of three repeats.
Where [20] appears, read: Phytophthora infestans, in Solanum lycopersicum, read-out: Test 1 preventive value, Measured, applied alone, 50 ppm.

`Cc1cc(C(F)(F)F)nn1CC(=O)N1CCC(c2nc(C3OCc4cccc(OS(C)(=O)=O)c4CO3)cs2)CC1` (centres unmarked) [Compound 1-6, 4-[4-(6-methylsulfonyloxy-1,5-dihydro-3H-2,4-benzodioxepin-3-yl)-2-thiazolyl]-1-[2-[5-methyl-3-(trifluoromethyl)-1H-pyrazol-1-yl]acetyl]piperidine]: the “Test 2 Measured preventive value” in assay [1] (Compound 1-6 alone 0.06 ppm, average of three repeats) is 5; in assay [1] (Compound 1-6 alone 0.3 ppm, average of three repeats), 93.8; in assay [1] (Compound alone, 0.3 ppm), 69.58 and 96.3. In addition, the pest or weed control at 0.3 ppm in assay [1] (setting [2]) was 98.5%; in assay [1] (setting [4]), 98%; in the assay on Phytophthora infestans (Phytophthora infestans, in Solanum lycopersicum, read-out: Test 1 Measured preventive value, Compound 1-6 alone 0.3 ppm, average of three repeats), 99.5%; in the assay with Phytophthora infestans (setting [5]), 98.3%; in the assay with Phytophthora infestans (setting [6]), 98%; in the assay with Phytophthora infestans (setting [8]) it was 97.7%. Also, the pest or weed control at 0.06 ppm in assay [1] (setting [3]) worked out at 40%; in the assay on Phytophthora infestans (Phytophthora infestans, in Solanum lycopersicum, read-out: Test 1 Measured preventive value, Compound 1-6 alone 0.06 ppm, average of three repeats) it was 25%; in the assay with Phytophthora infestans (setting [7]), 68.3%.
In the case of `CCC(C)(NC(=O)c1cc(Cl)c(C)c(Cl)c1)C(=O)CCl` (centres unmarked) [Zoxamide], the “Test 2 Measured preventive value” is given as 94 in assay [1] (component (b) alone, 2 ppm); 97.3 in assay [1] (component (b) alone, 10 ppm); 98.8 in assay [1] (component (b) alone, 50 ppm). In the assay with Phytophthora infestans (setting [9]), the pest or weed control at 2 ppm was determined as 83.3%. For the same compound, the pest or weed control at 10 ppm in the assay with Phytophthora infestans (setting [10]) is 95%. Moreover, the pest or weed control at 50 ppm in the assay on Phytophthora infestans (setting [11]) stood at 99%.
`O=C1C2CC=CCC2C(=O)N1SC(Cl)(Cl)Cl` (centres unmarked) [Captan]: the pest or weed control at 2 ppm turned out to be 90.1% in assay [1] (setting [12]), 5% in the assay on Phytophthora infestans (setting [9]) and 10% in the assay with Phytophthora infestans (setting [15]). The pest or weed control at 10 ppm is 99% in assay [1] (setting [13]), 71.7% in the assay on Phytophthora infestans (setting [10]) and 64.5% in the assay on Phytophthora infestans (setting [16]). The pest or weed control at 50 ppm in assay [1] (setting [14]) came out at 99%; in the assay on Phytophthora infestans (setting [11]), 93.8%; with Phytophthora infestans (Phytophthora infestans, in Solanum lycopersicum, read-out: Test 1 Measured, component (b) alone, 50 ppm), 90%. For the same compound, the “Test 2 Measured preventive value” in assay [1] (component (b) alone, 2 ppm) was 96 and 100; in assay [1] (component (b) alone, 10 ppm) it was 99.3; in assay [1] (component (b) alone, 50 ppm) it was 100 and 96.
Consider `Cc1cc(C(F)(F)F)nn1CC(=O)N1CCC(c2nc(C3OCc4c(F)ccc(OS(C)(=O)=O)c4CO3)cs2)CC1` (centres unmarked) [Compound 1-8, 4-[4-(6-fluoro-9-methylsulfonyloxy-1,5-dihydro-3H-2,4-benzodioxepin-3-yl)-2-thiazolyl]-1-[2-[5-methyl-3-(trifluoromethyl)-1H-pyrazol-1-yl]acetyl]piperidine], for which the “Test 2 Measured preventive value” was 10 and 12.5 and 15 in assay [1] (Compound alone, 0.012 ppm); 95.5 and 96.5 and 97.5 in assay [1] (Compound alone, 0.06 ppm); 100 in assay [1] (Compound alone, 0.3 ppm). For the same compound, the pest or weed control at 0.06 ppm in assay [1] (Pseudoperonospora cubensis, Compound alone 0.06 ppm, read-out: Test 2 Measured) stood at 98.8%; in assay [1] (setting [3]), 98%; in the assay with Phytophthora infestans (Phytophthora infestans, in Solanum lycopersicum, read-out: Test 1 Measured preventive value, Compound alone, 0.06 ppm) it was 98%; with Phytophthora infestans (Phytophthora infestans, in Solanum lycopersicum, read-out: Test 1 Measured, Compound alone 0.06 ppm), 96.2%; in the assay on Phytophthora infestans (setting [7]) it was 97.7%. Besides, the pest or weed control at 0.3 ppm (in assay [1] (setting [2]); in assay [1] (setting [4]); in the assay on Phytophthora infestans (setting [5]); in the assay on Phytophthora infestans (setting [6]); in the assay with Phytophthora infestans (setting [8])) was 100% throughout. Also, in assay [1] (applied alone, 0.06 ppm), the “Test 2 preventive value, Measured” value came out at 98. Further, the “Test 1 Measured preventive value” in the assay on Phytophthora infestans (Compound alone, 0.3 ppm) amounted to 100. The pest or weed control at 0.012 ppm with Phytophthora infestans (Phytophthora infestans, in Solanum lycopersicum, read-out: Test 1 Measured preventive value, Compound alone, 0.012 ppm) was 30%; in the assay with Phytophthora infestans (Phytophthora infestans, in Solanum lycopersicum, read-out: Test 1 preventive value, Measured, applied alone, 0.012 ppm) it was 43.3%.
Take `Cc1cc(C2CC2)nc(Nc2ccccc2)n1` [Cyprodinil]: the pest or weed control at 20 ppm was determined as 0% in assay [1] (Pseudoperonospora cubensis, component (b) alone 20 ppm, read-out: Test 2 Measured) and 0% in the assay on Phytophthora infestans (Phytophthora infestans, in Solanum lycopersicum, read-out: Test 1 Measured, component (b) alone 20 ppm). In addition, the pest or weed control at 100 ppm was 0% in assay [1] (Pseudoperonospora cubensis, component (b) alone 100 ppm, read-out: Test 2 Measured) and 0% with Phytophthora infestans (Phytophthora infestans, in Solanum lycopersicum, read-out: Test 1 Measured, component (b) alone 100 ppm). Also, the pest or weed control at 500 ppm in the assay with Phytophthora infestans (Phytophthora infestans, in Solanum lycopersicum, read-out: Test 1 Measured, component (b) alone 500 ppm) was found to be 0%.
Consider `COC(=O)CC(NC(=O)[C@@H](NC(=O)OC(C)C)C(C)C)c1ccc(Cl)cc1` (some centres unmarked) [Valifenalate], for which the “Test 2 Measured preventive value” in assay [1] (setting [17]) is listed as 0; in assay [1] (setting [18]) it was 57.5; in assay [1] (setting [19]), 93.5; in assay [1] (component (b) alone, 0.4 ppm) it was 0; in assay [1] (component (b) alone, 2 ppm), 57.5; in assay [1] (component (b) alone, 10 ppm), 93.5. Moreover, the “Test 2 Measured” value in assay [1] (component (b) alone, 0.4 ppm) is listed as 4; in assay [1] (component (b) alone, 2 ppm), 51.8; in assay [1] (component (b) alone, 10 ppm), 93. Moreover, the “Test 1 Measured preventive value” in the assay with Phytophthora infestans (setting [17]) was 20.0; in the assay on Phytophthora infestans (setting [18]) it was 51.7; in the assay on Phytophthora infestans (setting [19]), 96.2; with Phytophthora infestans (component (b) alone, 0.4 ppm), 20.0; with Phytophthora infestans (component (b) alone, 2 ppm) it was 51.7; with Phytophthora infestans (component (b) alone, 10 ppm) it was 96.2. Further, the “Test 1 Measured” value in the assay on Phytophthora infestans (component (b) alone, 0.4 ppm) is listed as 10.0; in the assay with Phytophthora infestans (component (b) alone, 2 ppm), 45.2; in the assay with Phytophthora infestans (component (b) alone, 10 ppm), 97.0.
As for `CON=C(C(=O)OC)c1ccccc1CON=C(C)c1cccc(C(F)(F)F)c1` [Trifloxystrobin], the pest or weed control at 10 ppm in assay [1] (Pseudoperonospora cubensis, applied alone, 10 ppm, read-out: Test 2 preventive value, Measured) amounted to 0%. Besides, the pest or weed control at 50 ppm is 0% in assay [1] (Pseudoperonospora cubensis, applied alone, 50 ppm, read-out: Test 2 preventive value, Measured) and 28.3% with Phytophthora infestans (setting [20]). The pest or weed control at 250 ppm in assay [1] (Pseudoperonospora cubensis, applied alone, 250 ppm, read-out: Test 2 preventive value, Measured) worked out at 0%.
In the case of `Fc1ccc(Oc2ccnc3cc(Cl)cc(Cl)c23)cc1` [Quinoxyfen], the pest or weed control at 250 ppm in assay [1] (Pseudoperonospora cubensis, component (b) alone 250 ppm, read-out: Test 2 Measured) turned out to be 0%; with Phytophthora infestans (Phytophthora infestans, in Solanum lycopersicum, read-out: Test 1 preventive value, Measured, applied alone, 250 ppm), 0%. The pest or weed control at 10 ppm in assay [1] (setting [13]) is 0%; in the assay with Phytophthora infestans (Phytophthora infestans, in Solanum lycopersicum, read-out: Test 1 preventive value, Measured, applied alone, 10 ppm) it was 0%. Moreover, the pest or weed control at 50 ppm (in assay [1] (setting [14]); with Phytophthora infestans (setting [20])) was 0% throughout.
Take `CSC1=N[C@@](C)(c2ccccc2)C(=O)N1Nc1ccccc1` [Fenamidone]: the pest or weed control at 0.4 ppm in assay [1] (Pseudoperonospora cubensis, component (b) alone, 0.4 ppm, read-out: Test 2 Measured) turned out to be 0%; in the assay with Phytophthora infestans (Phytophthora infestans, in Solanum lycopersicum, read-out: Test 1 Measured, component (b) alone, 0.4 ppm) it was 16.7%. The figures for the pest or weed control at 2 ppm (in assay [1] (setting [12]); in the assay on Phytophthora infestans (setting [15])) were 0% and 94.2%, respectively. The pest or weed control at 10 ppm in assay [1] (setting [13]) was 0%; with Phytophthora infestans (setting [16]) it was 98.5%.
